Experiments:
ABC1 [1] = conditions: cited from earlier work
cholesterol efflux = conditions: cited from earlier work
ABC1 [2] = biological target: ABC1 (Homo sapiens, UniProt O95477); conditions: cited from earlier work
ABC1 mRNA = ABC1 mRNA upon cholesterol loading; type: cell-based

ABC1 (Homo sapiens, UniProt O95477), sequence (O95477 whole entry): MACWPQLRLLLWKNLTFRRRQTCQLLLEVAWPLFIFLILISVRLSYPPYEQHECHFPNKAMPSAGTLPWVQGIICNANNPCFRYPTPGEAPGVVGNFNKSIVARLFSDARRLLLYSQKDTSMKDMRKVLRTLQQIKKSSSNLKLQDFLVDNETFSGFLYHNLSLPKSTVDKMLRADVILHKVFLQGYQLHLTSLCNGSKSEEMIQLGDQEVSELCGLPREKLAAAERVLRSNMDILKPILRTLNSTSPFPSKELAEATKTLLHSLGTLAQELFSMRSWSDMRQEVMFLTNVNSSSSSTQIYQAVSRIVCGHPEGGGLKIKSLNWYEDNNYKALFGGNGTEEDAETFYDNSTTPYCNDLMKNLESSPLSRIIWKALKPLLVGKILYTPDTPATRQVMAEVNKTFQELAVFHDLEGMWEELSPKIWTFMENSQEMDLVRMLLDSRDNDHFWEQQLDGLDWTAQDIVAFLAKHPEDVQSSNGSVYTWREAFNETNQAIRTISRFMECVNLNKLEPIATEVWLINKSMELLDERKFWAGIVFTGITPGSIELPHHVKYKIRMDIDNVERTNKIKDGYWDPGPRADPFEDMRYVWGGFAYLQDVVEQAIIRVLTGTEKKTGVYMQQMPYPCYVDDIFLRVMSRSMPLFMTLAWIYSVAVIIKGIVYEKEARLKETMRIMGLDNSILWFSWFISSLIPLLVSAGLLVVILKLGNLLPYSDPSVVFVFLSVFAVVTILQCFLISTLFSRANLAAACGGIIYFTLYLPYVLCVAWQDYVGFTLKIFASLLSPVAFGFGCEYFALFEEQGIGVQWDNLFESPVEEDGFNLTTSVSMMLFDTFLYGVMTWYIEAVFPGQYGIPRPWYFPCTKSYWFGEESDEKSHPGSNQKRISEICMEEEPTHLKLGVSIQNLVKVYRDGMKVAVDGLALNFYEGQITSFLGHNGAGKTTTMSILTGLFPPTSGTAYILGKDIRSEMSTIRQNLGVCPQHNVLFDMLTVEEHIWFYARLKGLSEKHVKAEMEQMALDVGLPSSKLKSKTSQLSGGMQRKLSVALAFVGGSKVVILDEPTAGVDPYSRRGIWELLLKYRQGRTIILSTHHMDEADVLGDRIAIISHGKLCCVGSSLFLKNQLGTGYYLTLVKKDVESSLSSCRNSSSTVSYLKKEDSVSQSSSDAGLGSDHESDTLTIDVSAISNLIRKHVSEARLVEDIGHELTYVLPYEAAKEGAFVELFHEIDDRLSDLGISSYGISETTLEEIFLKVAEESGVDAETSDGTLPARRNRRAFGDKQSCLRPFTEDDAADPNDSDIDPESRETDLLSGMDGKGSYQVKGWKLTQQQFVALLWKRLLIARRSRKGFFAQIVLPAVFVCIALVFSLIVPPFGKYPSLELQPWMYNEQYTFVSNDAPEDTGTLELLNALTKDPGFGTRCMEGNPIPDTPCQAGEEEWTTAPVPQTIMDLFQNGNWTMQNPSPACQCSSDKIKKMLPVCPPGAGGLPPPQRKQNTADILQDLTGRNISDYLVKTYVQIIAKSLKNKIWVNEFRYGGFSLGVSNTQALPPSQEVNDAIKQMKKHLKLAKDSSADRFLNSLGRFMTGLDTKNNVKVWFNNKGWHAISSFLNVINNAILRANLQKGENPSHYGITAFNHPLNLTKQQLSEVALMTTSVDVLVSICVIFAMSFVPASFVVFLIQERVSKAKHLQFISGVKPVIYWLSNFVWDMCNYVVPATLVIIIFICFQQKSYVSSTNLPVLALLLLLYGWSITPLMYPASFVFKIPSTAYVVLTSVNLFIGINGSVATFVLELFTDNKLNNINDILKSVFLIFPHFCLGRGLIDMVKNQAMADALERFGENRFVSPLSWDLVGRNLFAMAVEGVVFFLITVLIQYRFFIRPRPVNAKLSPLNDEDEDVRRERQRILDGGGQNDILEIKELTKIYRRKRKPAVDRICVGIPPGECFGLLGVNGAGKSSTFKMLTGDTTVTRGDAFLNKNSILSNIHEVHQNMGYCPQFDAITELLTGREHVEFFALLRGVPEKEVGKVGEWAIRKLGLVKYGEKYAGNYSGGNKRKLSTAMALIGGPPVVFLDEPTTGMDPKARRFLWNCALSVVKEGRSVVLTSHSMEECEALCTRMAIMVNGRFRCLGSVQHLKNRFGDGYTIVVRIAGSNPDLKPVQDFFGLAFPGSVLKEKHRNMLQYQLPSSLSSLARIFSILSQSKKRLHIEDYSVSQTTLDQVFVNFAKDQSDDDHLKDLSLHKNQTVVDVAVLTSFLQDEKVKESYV

Compound	inhibition of ABC1 (ABC1 [1])	upregulation of ABC1 expression or biological activity (ABC1 [2])	also measured
O=C1OC(c2ccc(O)c(S(=O)(=O)O)c2)(c2ccc(O)c(S(=O)(=O)O)c2)c2c(Br)c(Br)c(Br)c(Br)c21 [sulfobromophthalein]	inhibit	–	–
C[C@H]1CCC/C=C/[C@@H]2C[C@H](O)C[C@H]2[C@H](O)/C=C/C(=O)O1 [Brefeldin]	–	–	cholesterol efflux (cholesterol efflux): significantly inhibits cholesterol efflux
[O]=[V]([O-])([O-])[O-] [vanadate]	–	upregulate	–
O=C(O)c1ccccc1Nc1ccccc1 [diphenylamine-2-carbonic acid]	inhibit	–	–
CC(C)CCC[C@@H](C)[C@H]1CC[C@H]2[C@@H]3CC=C4C[C@@H](O)CC[C@]4(C)[C@H]3CC[C@]12C [cholesterol]	–	–	increase of ABC1 mRNA (ABC1 mRNA): approximately 8 fold
C=C1[C@@H](O)[C@@H]2O[C@]3(CC[C@H](/C=C/[C@@H](C)[C@@H]4CC(C)=C[C@@]5(O[C@H](C[C@@](C)(O)C(=O)O)CC[C@H]5O)O4)O3)CC[C@H]2O[C@@H]1[C@@H](O)C[C@H](C)[C@H]1O[C@@]2(CCCCO2)CC[C@H]1C [okadaic acid]	–	upregulate	–
CC(C)Cn1c(=O)n(C)c(=O)c2[nH]cnc21 [IBMX1]	–	upregulate	–
COc1ccc(Cl)cc1C(=O)NCCc1ccc(S(=O)(=O)NC(=O)NC2CCCCC2)cc1 [glibenclamide]	inhibit	–	–
O=C(O)c1ccccc1Nc1cccc(C(F)(F)F)c1 [flufenamic acid]	inhibit	–	–
O=S(=O)(O)c1cc(N=C=S)ccc1C=Cc1ccc(N=C=S)cc1S(=O)(=O)O [DIDS]	inhibit	–	–

Source: US6617122B1, “Process for identifying modulators of ABC1 activity” (Xenon Genetics, Inc., priority 1999, dated 2003)
